Data as given in US20240261267A1, “METHODS FOR TREATING MULTIPLE SCLEROSIS” (Vanda Pharmaceuticals Inc., priority 2021, published 2024).

Legend:
primary mouse OPCs = test: differentiation assay, quantitative PCR; assay type: cell-based
Description: The effects of ponesimod, a selective S1P1 receptor agonist, and A971432, a selective S1P5 receptor agonist, on oligodendrocyte precursor cell (OPC) migration and differentiation were evaluated. Nine concentrations were tested (logarithmic dilutions ranging from 0.3 nM to 3000 nM, n=6 per concentration). Fingolimod phosphate (P-FTY720, 3000 nM, n=6) was included as a positive control, 0.1% DMSO was included (min.one/plate) as a negative control. Primary mouse OPCs were harvested on postnatal day 0 or 1 and mixed glia cultures were maintained for 14 days. Primary OPCs were then purified using the shake-off method, and used for either a migration assay, or a differentiation assay, as detailed below. To harvest primary mouse OPCs, cortices are isolated from mouse pups on postnatal day 0 or 1 and placed in ice-cold Dulbecco's Modified Eagle Medium (DMEM) (Sigma Aldrich, Overijse, BE). The cortices are homogenized and centrifuged for 5 minutes at 300 G. The supernatant is removed, and a papain solution is added for 30 minutes (125 uL DMEM solution per brain containing 20 units/ml papain and 40 μg/ml DNase, at 37 degrees). Digestion is inactivated by adding 9 ml cold DMEM. The solution is then centrifuged for 5 minutes at […]. The supernatant is carefully removed, and the pellet is resuspended in 2-5 ml culture medium (DMEM with 10% fetal calf serum (Biowest, Nuaillé, FR) and 1% pen/strep (Sigma Aldrich, Overijse, BE)). […] Cell suspension is divided over PLL (Sigma Aldrich, Overijse, BE)-coated flasks (2 brains per flask) and DMEM is added to a final volume of 10 ml. DMEM is replaced on day 4, 7, and 11. On day 7 and 11, insulin (Sigma Aldrich, Overijse, BE) is added to the medium (5μg/ml). On day 14, OPCs are separated from astrocytes by the shake-off method: flasks are placed on a shaker for 45 minutes at 75 rpm (37 degrees). The medium is then aspirated and discarded, and 10 ml fresh culture medium is added. Flasks are then returned to the shaker for 16-18 hours shaking at 280 rpm. Next, the medium is isolated, and this cell suspension is placed in a plastic petri dish and incubated for 25 minutes. The medium, which contains the OPCs, is then collected and centrifuged for 5 minutes at 300 G. Cells are then resuspended in SATO differentiation medium containing 2% horse serum, 2% B-27, 50 U/ml P/S, 2.4 μl/ml transferrin, 1.04 μl/ml L-thyroxine, 1 μl/ml putrescin, 1 μl/ml progesterone, 1 μl/ml TIT, 0.74 μl/ml sodium selenite and 0.5 μl/ml insulin (all from Sigma-Aldrich, Overijse, BE). […] After shake-off, cells are reset for their differentiation status: one hour after plating, cells are treated with platelet-derived growth factor (PDGF, 10 ng/ml, Peprotech EC Ltd, London, UK) and fibroblast growth factor (fgf, 10 ng/ml, Peprotech EC Ltd, London, UK). Twenty-four hours after plating, cells are treated again with fgf (10 ng/ml). 250,000 cells are plated onto glass coverslips in 24-well plates. Cells are treated with test compound or DMSO on day 1 (twenty-four hours after fgf treatment) and 3, and lysated on day 4. Total RNA was isolated from primary OPCs, using the RNeasy mini kit (Qiagen, Venlo, the Netherlands), according to the manufacturer's instructions. RNA concentration and quality is analyzed with a Nanodrop spectrophotometer (Isogen Life Science, Leiden, The Netherlands). RNA is reverse-transcribed using the qScript cDNA Supermix kit (Quanta, Leuven, Belgium). qPCR is performed to analyze gene expression, using the Applied Biosystems QuantStudio 3 Real-Time PCR System (Life Technologies, Gent, Belgium). The reaction mixture consists of SYBR Green master mix (Life Technologies, Carlsbad, USA), 10 μM forward and reverse primers (Integrated DNA Technologies, Leuven, Belgium), nuclease-free water and cDNA template (12.5 ng), up to a total reaction volume of 10 μl. […] All data was normalised against plate-matched negative controls.

[1] = test system: adult subjects with relapsing MS; test: Phase III OPTIMUM study, safety and treatment discontinuation
Description: A prospective, multicenter, randomized, double-blind, active controlled, parallel-group, phase III, superiority study (Phase III OPTIMUM study) was conducted.
Subjects had active disease evidenced by one or more MS attacks with onset within the period of 12 to 1 months prior to baseline EDSS assessment, or by two or more MS attacks with onset within the 24 to 1 months prior to baseline EDSS assessment, or with one or more gadolinium-enhancing (Gd+) lesion(s) of the brain on an MRI performed within 6 months prior to baseline EDSS assessment. Enrolled subjects were ambulatory with an EDSS score of up to 5.5 inclusive. The subjects were treatment-naïve (i.e., no MS disease-modifying therapy received at any time in the past) or previously treated with interferon (IFN) β-1a, IFN β-1b, glatiramer acetate, dimethyl fumarate, or natalizumab.
The treatment period consisted of an up-titration period (from Day 1 to 14) and a maintenance period (Day 15 until EOT).
To reduce the first-dose effect of ponesimod, an up-titration scheme was implemented from Day 1 to Day 14: • Days 1 and 2; 2 mg. • Days 3 and 4; 3 mg. • Days 5 and 6; 4 mg. • Day 7; 5 mg. • Day 8; 6 mg. • Day 9; 7 mg. • Day 10; 8 mg. • Day 11; 9 mg. • Days 12, 13, and 14; 10 mg. • Day 15 until EOT; 20 mg.
The Safety Set (SAF) included all randomized subjects who received at least one dose of study treatment. Subjects were analyzed based on actual treatment taken, not randomized treatment.

[2] = test system: normal appearing white matter (NAWM) of MS patients; test: Phase III OPTIMUM study, myelination estimated from standardized T1/T2 MRI; assay type: in vivo, human
Source text: The impact of treatment on myelination changes in normal appearing white matter (NAWM) which sustains damage early in the MS disease course was compared
Myelination was estimated from T1 and T2-weighted magnetic resonance images collected at baseline, week 60 and week 108 in 427 patients treated with ponesimod and 428 with teriflunomide. Standardized T1/T2 was used to quantify myelination in non-lesional corpus callosum, cingulum, and remaining NAWM. Average myelination change (ΔM) from baseline at weeks 60 (w60) and 108 (w108) were compared across treatment arms using two-sided two sample t-tests, all p-values nominal.

MS patients = test: Phase III OPTIMUM study, efficacy outcomes; assay type: in vivo, human; conditions: ponesimod 20 mg compared with teriflunomide 14 mg
[3] = Safety Set, ponesimod 20 mg, teriflunomide 14 mg
[4] = ponesimod 20 mg, teriflunomide 14 mg

Structure (SMILES): O=C(O)C1CN(Cc2ccc(OCc3ccc(Cl)c(Cl)c3)cc2)C1 [A97]
- MOG expression (primary mouse OPCs; 3 nM): significant decrease
- Mag gene expression (primary mouse OPCs; 3 nM): significant decrease
- Mbp expression (primary mouse OPCs; 3 nM): decrease
- Mag gene expression (primary mouse OPCs; 10 nM): significant decrease
- Mbp expression (primary mouse OPCs; 10 nM): decrease
- Ng2 gene expression (primary mouse OPCs; 10 nM): significant decrease
- PLP expression (primary mouse OPCs; 10 nM): significant decrease
- Mag gene expression (primary mouse OPCs; 30 nM): significant decrease
- Mobp expression (primary mouse OPCs; 30 nM): significant decrease
- Ng2 gene expression (primary mouse OPCs; 30 nM): significant decrease
- Mobp expression (primary mouse OPCs; 100 nM): significant decrease
- MOG expression (primary mouse OPCs; 300 nM): significant decrease
- PLP expression (primary mouse OPCs; 300 nM): significant decrease
- Mag gene expression (primary mouse OPCs; 1000 nM): significant decrease
- Mbp expression (primary mouse OPCs; 1000 nM): decrease
- Mobp expression (primary mouse OPCs; 1000 nM): significant decrease
- Ng2 gene expression (primary mouse OPCs; 1000 nM): significant decrease
- PLP expression (primary mouse OPCs; 1000 nM): significant decrease
- expression of Ng2, Plp, Mbp, Mobp, Mog, and Mag (primary mouse OPCs; concentration series): significant concentration-dependent decreases

Structure (SMILES): CCC/N=C1\S/C(=C\c2ccc(OC[C@H](O)CO)c(Cl)c2)C(=O)N1c1ccccc1C [ponesimod, (R)-5-[3-chloro-4-(2,3-dihydroxy-propoxy)-benz[Z]ylidene]-2-([Z]-propylimino)-3-o-tolyl-thiazolidin-4-one]
- changes at the gene expression level (primary mouse OPCs; all concentrations tested, normalised to negative controls): No significant changes
- 2nd or higher degree AV block ([1]; Day 1, first dose): No 2nd or higher degree AV block
- ECG HR effect: nadir ([1]; Day 1, first dose): 2 hours post-dose
- subjects meeting discharge criteria at 4 hours post-dose ([1]; Day 1, first dose): ca. 99%
- subjects with asymptomatic post-dose HR≤40 bpm ([1]; Day 1, all with pre-treatment HR<55 bpm): 3
- AEs leading to premature discontinuation of study drug, SOC Reproductive system and breast disorders [1, 3]: 0 n
- AEs leading to premature discontinuation of study drug, SOC Surgical and medical procedures [1, 3]: 0 n
- Premature treatment discontinuation: Death [1, 3]: 0 n
- Subject with at least one AE leading to study drug discontinuation [1, 3]: 8.7%
- Subject with at least one Fatal AE [1, 3]: 0 n
- Subject with at least one Serious AE [1, 3]: 8.7%
- Subject with at least one treatment-emergent AE [1, 3]: 88.8%
- Treatment-emergent AESI: Hepatobiliary disorders/Liver enzyme abnormality [1, 3]: 25.7%
- Treatment-emergent AESI: Hypertension [1, 3]: 10.1%
- Treatment-emergent AESI: Pulmonary events [1, 3]: 8.0%
- mean heart rate reduction compared to pre-dose ([1]; at 2-hours post dose, Day 1): −8.7 bpm
- AESI heart rate and rhythm: Electrocardiogram QT prolonged ([1]; on Day 1, Safety Set): 0 n
- AESI heart rate and rhythm: Presyncope ([1]; on Day 1, Safety Set): 0 n
- AESI effect on heart rate and rhythm (including hypotension): Subjects with at least one AE ([1]; on Day 1, Safety Set, ponesimod arm (2 mg on Day 1), teriflunomide 14 mg): 2.1%
- TEAE ALT increased [1, 4]: 19.5%
- TEAE headache [1, 4]: 11.5%
- TEAE nasopharyngitis [1, 4]: 19.3%
- TEAE upper respiratory tract infection [1, 4]: 10.6%
- proportion of subjects who experienced ALT increase>3×ULN [1, 4]: 17.3%
- proportion of subjects who experienced ALT increase>8×ULN [1, 4]: 0.7%
- subjects discontinued due to AEs or tolerability related reasons [1, 4]: 6.5%
- average myelination decrease, comparison across treatment arms ([2]; all regions and both visits (w60, w108), ponesimod 20 mg vs teriflunomide 14 mg): significantly less demyelination
- myelination change from baseline (standardized T1/T2) ([2]; non-lesional corpus callosum, cingulum, remaining NAWM, weeks 60 and 108, p<0.05): only the corpus callosum showed a significant decrease at w108
- Fatigue Symptoms and Impacts Questionnaire-Relapsing Multiple Sclerosis (MS patients): difference
- active lesions/year (MS patients): reduction
- annualized relapse rate (MS patients): greater reduction
- brain volume loss (MS patients): lower
- disability accumulation risk estimates (MS patients): reduction
